# Where a SMILES comes first, the peptide text is derived from it. Bridges are numbered along the chain shown (N, C = ends). [ ]: non-standard residue; d: D form. The star is where a group is joined. hPhe(3-Cl-4-CF3) = N[C@@H](CCc1ccc(C(F)(F)F)c(Cl)c1)C(=O)O; NPrPhe(4-CF3) = CCCN[C@@H](Cc1ccc(C(F)(F)F)cc1)C(=O)O; Pro(4-spirocPr) = O=C(O)[C@@H]1CC2(CC2)CN1; Pip(4,4-F2) = O=C(O)[C@@H]1CC(F)(F)CCN1; NMeGly(cPent) = CN[C@H](C(=O)O)C1CCCC1; Aze(3S-Me) = C[C@H]1CN[C@@H]1C(=O)O; Hyp = O=C(O)[C@@H]1C[C@@H](O)CN1; NMeD = CN[C@@H](CC(=O)O)C(=O)O; NMeL = CN[C@@H](CC(C)C)C(=O)O; Pip = O=C(O)[C@@H]1CCCCN1; Morpholide = C1CN(*)CCO1; Ac5c = NC1(C(=O)O)CCCC1; Aze = O=C(O)[C@@H]1CCN1; NEtG = CCNCC(=O)O; Sar = CNCC(=O)O
# Tests used:
# [1] = target: GDP-bound NRAS wild-type protein (Homo sapiens, UniProt P01111); assay: Binding to NRAS by surface plasmon resonance (SPR), Single Cycle Kinetics; settings: KD ratio NRAS/KRAS, SPR
# GDP-bound NRAS wild-type protein, sequence (P01111 whole entry): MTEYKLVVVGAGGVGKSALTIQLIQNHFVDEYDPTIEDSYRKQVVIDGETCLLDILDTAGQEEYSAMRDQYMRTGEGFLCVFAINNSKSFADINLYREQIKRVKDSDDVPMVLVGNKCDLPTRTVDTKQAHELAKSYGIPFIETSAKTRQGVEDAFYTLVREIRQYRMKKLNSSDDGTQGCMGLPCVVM
# [2] = target: GDP-bound HRAS wild-type protein (Homo sapiens, UniProt P01112); assay: Binding to HRAS by surface plasmon resonance (SPR), Single Cycle Kinetics; settings: KD ratio HRAS/KRAS, SPR
# GDP-bound HRAS wild-type protein, sequence (P01112 whole entry): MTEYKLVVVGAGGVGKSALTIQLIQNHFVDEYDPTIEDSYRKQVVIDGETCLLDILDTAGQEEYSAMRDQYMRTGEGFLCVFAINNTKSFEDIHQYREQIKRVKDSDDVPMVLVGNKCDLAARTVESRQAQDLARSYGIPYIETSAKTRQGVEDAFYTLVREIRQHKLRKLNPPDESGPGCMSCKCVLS
compound,measurement,setting,value
CCCN1C(=O)CN(C)C(=O)[C@@H]2[C@@H](C)CN2C(=O)[C@H]([C@@H](C)CC)NC(=O)[C@H](CC(C)C)N(C)C(=O)C[C@@H](C(=O)N2CCOCC2)N(C)C(=O)[C@H](C2CCCC2)N(C)C(=O)C2(CCCC2)NC(=O)[C@@H]2CCCN2C(=O)[C@H](CCc2ccc(C(F)(F)F)c(Cl)c2)NC(=O)CN(C)C(=O)[C@@H]1Cc1ccc(C(F)(F)F)cc1 [PP0258] ([NMeL]I[Aze(3S-Me)][Sar][NPrPhe(4-CF3)][Sar][hPhe(3-Cl-4-CF3)]P[Ac5c][NMeGly(cPent)][NMeD]-Morpholide; lactam N-11),NRAS/KRAS (ratio of KD for GDP-bound NRAS wild-type to KD for KRAS),[1],B (a compound having 3 or more and less than 10 is denoted as B)
same,HRAS/KRAS (ratio of KD for GDP-bound HRAS wild-type to KD for KRAS),[2],C (A compound having a KD ratio of 0.1 or more and less than 3 is denoted as C)
CCCN1C(=O)[C@@H]2CCN2C(=O)CN(CC)C(=O)[C@H]([C@@H](C)CC)NC(=O)[C@H](CC(C)C)N(C)C(=O)C[C@@H](C(=O)N2CCOCC2)N(C)C(=O)[C@H](C2CCCC2)N(C)C(=O)C2(CCCC2)NC(=O)[C@@H]2CCCN2C(=O)[C@H](CCc2ccc(C(F)(F)F)c(Cl)c2)NC(=O)CN(C)C(=O)[C@@H]1Cc1ccc(C(F)(F)F)cc1 [PP0259] ([NMeL]I[NEtG][Aze][NPrPhe(4-CF3)][Sar][hPhe(3-Cl-4-CF3)]P[Ac5c][NMeGly(cPent)][NMeD]-Morpholide; lactam N-11),NRAS/KRAS (ratio of KD for GDP-bound NRAS wild-type to KD for KRAS),[1],C (A compound having a KD ratio of 0.1 or more and less than 3 is denoted as C)
same,HRAS/KRAS (ratio of KD for GDP-bound HRAS wild-type to KD for KRAS),[2],B (a compound having 3 or more and less than 10 is denoted as B)
CCCN1C(=O)CN(C)C(=O)CN(C)C(=O)[C@H]([C@@H](C)CC)NC(=O)[C@H](CC(C)C)N(C)C(=O)C[C@@H](C(=O)N2CCOCC2)N(C)C(=O)[C@H](C2CCCC2)N(C)C(=O)C2(CCCC2)NC(=O)[C@@H]2CCN2C(=O)[C@H](CCc2ccc(C(F)(F)F)c(Cl)c2)NC(=O)CN(C)C(=O)[C@@H]1Cc1ccc(C(F)(F)F)cc1 [PP0260] ([NMeL]I[Sar][Sar][NPrPhe(4-CF3)][Sar][hPhe(3-Cl-4-CF3)][Aze][Ac5c][NMeGly(cPent)][NMeD]-Morpholide; lactam N-11),NRAS/KRAS (ratio of KD for GDP-bound NRAS wild-type to KD for KRAS),[1],B (a compound having 3 or more and less than 10 is denoted as B)
same,HRAS/KRAS (ratio of KD for GDP-bound HRAS wild-type to KD for KRAS),[2],C (A compound having a KD ratio of 0.1 or more and less than 3 is denoted as C)
CCCN1C(=O)CN(C)C(=O)CN(C)C(=O)[C@H]([C@@H](C)CC)NC(=O)[C@H](CC(C)C)N(C)C(=O)C[C@@H](C(=O)N2CCOCC2)N(C)C(=O)[C@H](C2CCCC2)N(C)C(=O)C2(CCCC2)NC(=O)[C@@H]2CC3(CC3)CN2C(=O)[C@H](CCc2ccc(C(F)(F)F)c(Cl)c2)NC(=O)CN(C)C(=O)[C@@H]1Cc1ccc(C(F)(F)F)cc1 [PP0261] ([NMeL]I[Sar][Sar][NPrPhe(4-CF3)][Sar][hPhe(3-Cl-4-CF3)][Pro(4-spirocPr)][Ac5c][NMeGly(cPent)][NMeD]-Morpholide; lactam N-11),NRAS/KRAS (ratio of KD for GDP-bound NRAS wild-type to KD for KRAS),[1],B (a compound having 3 or more and less than 10 is denoted as B)
same,HRAS/KRAS (ratio of KD for GDP-bound HRAS wild-type to KD for KRAS),[2],C (A compound having a KD ratio of 0.1 or more and less than 3 is denoted as C)
CCCN1C(=O)CN(C)C(=O)CN(C)C(=O)[C@H]([C@@H](C)CC)NC(=O)[C@H](CC(C)C)N(C)C(=O)C[C@@H](C(=O)N2CCOCC2)N(C)C(=O)[C@H](C2CCCC2)N(C)C(=O)C2(CCCC2)NC(=O)[C@@H]2C[C@@H](OC)CN2C(=O)[C@H](CCc2ccc(C(F)(F)F)c(Cl)c2)NC(=O)CN(C)C(=O)[C@@H]1Cc1ccc(C(F)(F)F)cc1 [PP0262] ([NMeL]I[Sar][Sar][NPrPhe(4-CF3)][Sar][hPhe(3-Cl-4-CF3)][Hyp](Me)[Ac5c][NMeGly(cPent)][NMeD]-Morpholide; lactam N-11),NRAS/KRAS (ratio of KD for GDP-bound NRAS wild-type to KD for KRAS),[1],B (a compound having 3 or more and less than 10 is denoted as B)
same,HRAS/KRAS (ratio of KD for GDP-bound HRAS wild-type to KD for KRAS),[2],B (a compound having 3 or more and less than 10 is denoted as B)
CCCN1C(=O)CN(C)C(=O)CN(C)C(=O)[C@H]([C@@H](C)CC)NC(=O)[C@H](CC(C)C)N(C)C(=O)C[C@@H](C(=O)N2CCOCC2)N(C)C(=O)[C@H](C2CCCC2)N(C)C(=O)C2(CCCC2)NC(=O)[C@@H]2CCCCN2C(=O)[C@H](CCc2ccc(C(F)(F)F)c(Cl)c2)NC(=O)CN(C)C(=O)[C@@H]1Cc1ccc(C(F)(F)F)cc1 [PP0263] ([NMeL]I[Sar][Sar][NPrPhe(4-CF3)][Sar][hPhe(3-Cl-4-CF3)][Pip][Ac5c][NMeGly(cPent)][NMeD]-Morpholide; lactam N-11),NRAS/KRAS (ratio of KD for GDP-bound NRAS wild-type to KD for KRAS),[1],B (a compound having 3 or more and less than 10 is denoted as B)
same,HRAS/KRAS (ratio of KD for GDP-bound HRAS wild-type to KD for KRAS),[2],C (A compound having a KD ratio of 0.1 or more and less than 3 is denoted as C)
"CCCN1C(=O)CN(C)C(=O)CN(C)C(=O)[C@H]([C@@H](C)CC)NC(=O)[C@H](CC(C)C)N(C)C(=O)C[C@@H](C(=O)N2CCOCC2)N(C)C(=O)[C@H](C2CCCC2)N(C)C(=O)C2(CCCC2)NC(=O)[C@@H]2CC(F)(F)CCN2C(=O)[C@H](CCc2ccc(C(F)(F)F)c(Cl)c2)NC(=O)CN(C)C(=O)[C@@H]1Cc1ccc(C(F)(F)F)cc1 [PP0264] ([NMeL]I[Sar][Sar][NPrPhe(4-CF3)][Sar][hPhe(3-Cl-4-CF3)][Pip(4,4-F2)][Ac5c][NMeGly(cPent)][NMeD]-Morpholide; lactam N-11)",NRAS/KRAS (ratio of KD for GDP-bound NRAS wild-type to KD for KRAS),[1],B (a compound having 3 or more and less than 10 is denoted as B)
same,HRAS/KRAS (ratio of KD for GDP-bound HRAS wild-type to KD for KRAS),[2],C (A compound having a KD ratio of 0.1 or more and less than 3 is denoted as C)
